# Laboratory results reported in PMC11602157, “ZNF512B binds RBBP4 via a variant NuRD interaction motif and aggregates chromatin in a NuRD complex-independent manner” (Nucleic Acids Research, 2024).
# Target: T1, RBBP4 (Homo sapiens, UniProt Q09028)
# T1 construct: Expression of recombinant RBBP4 protein was done as described ([32]); His-tag (inferred from His-Trap purification); made in house
# Test: Competitive fluorescence polarization (displacement of FAM-labeled ZNF512B tracer)
# Assay type: binding
# Conditions: ratio of competitive ki, ZNF512B vs FOG-1
# Protocol: Expression of recombinant RBBP4 protein was done as described ([32]). RBBP4 was purified by FPLC using the Äkta Start (Cytiva) via a His-Trap column (71502768) and subsequently a HiTRAP Q column (29051325) by standard procedures outlined in the instructions of the manufacturer. To determine the dissociation constant (kD), serial dilutions of RBBP4 protein (10–0 μM, 25 μl) in 50 mM Tris/Cl pH 7.5, 150 mM NaCl and 0.02% Triton™ X-100 were added to 25 μl of the fluorescently tagged tracer peptide for a finale volume of 50 μl with 1 nM tracer. The 384-well plate (GBO 781 900) was measured (Tecan Spark 20M) after 60 min and the kD values were calculated by converting the mP values into their corresponding anisotropy (A) values following the equation:
# Hereby, A = anisotropy and P = polarization. These values were plotted versus the respective concentrations of the protein with a non-linear regression according to the following equation: […]
# Hereby, A is the experimental anisotropy, Af is the anisotropy for the free ligand, Ab is the anisotropy for the fully bound ligand, LT is the total added concentration of ligand, kD is the equilibrium dissociation constant and RT is the total receptor concentration. […] Inhibition constant (ki) values were calculated using the following equation described previously by Wang et al. and the standard deviation was calculated for each ki value ([35]).
# T1 sequence (Q09028 whole entry): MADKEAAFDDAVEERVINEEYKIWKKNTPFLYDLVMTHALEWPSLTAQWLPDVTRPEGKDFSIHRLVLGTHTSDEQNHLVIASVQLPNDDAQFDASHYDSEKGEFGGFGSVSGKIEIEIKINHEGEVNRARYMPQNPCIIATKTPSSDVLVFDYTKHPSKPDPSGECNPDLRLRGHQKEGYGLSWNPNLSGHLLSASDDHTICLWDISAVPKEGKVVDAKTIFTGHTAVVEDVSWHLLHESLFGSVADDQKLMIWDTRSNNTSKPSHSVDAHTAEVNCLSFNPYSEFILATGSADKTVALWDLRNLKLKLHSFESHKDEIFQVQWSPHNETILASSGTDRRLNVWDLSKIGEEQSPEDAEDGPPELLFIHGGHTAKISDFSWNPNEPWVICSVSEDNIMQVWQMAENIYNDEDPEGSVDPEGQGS
structure (smiles),measurement,value
CC(=O)N[C@@H](CCCCN)C(=O)N[C@@H](Cc1c[nH]cn1)C(=O)N[C@@H](CCCNC(=N)N)C(=O)N[C@@H](CCCNC(=N)N)C(=O)N[C@@H](CCCCN)C(=O)N[C@@H](CCC(N)=O)C(=O)N[C@@H](CCCCN)C(=O)N[C@H](C(=O)N1CCC[C@H]1C(=O)N[C@@H](CCCCN)C(=O)N[C@@H](CCCCN)C(=O)N[C@@H](Cc1ccccc1)C(N)=O)[C@@H](C)O [ZNF512B-WT],higher affinity for RBBP4 than FOG-1,> 60 -fold
